Consider three molecules from PubChem BioAssay (NCI).

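Dose response: 5 concentrations. Exposure: 48 h. Format: 96-well plates. Endpoint: linear interpolation; highest concentration if not reached. TGI denotes the concentration required for complete inhibition of growth.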 Some results are limits rather than exact numbers.

Test systems include P388/ADR leukemia; P388 leukemia; SN12K1 renal; RXF-631 renal.
Test in all cases: NCI tumour cell line growth inhibition, 48 h

Take `Cn1c(=O)[nH]c2nncnc2c1=O`: the TGI with P388/ADR leukemia was greater than 625 µM; in the experiment with P388 leukemia, 148 µM; with SN12K1 renal, greater than 625 µM.
Molecule `COc1ccc(C(=O)C2=NON3OC23C(=O)c2ccc(OC)cc2)cc1` (configuration not stated) showed a TGI with RXF-631 renal of 31.8 µM.
In the case of `COc1ccc2nc3c(C(=O)NCCN(C)C)cccc3cc2c1`, the TGI in the experiment on P388/ADR leukemia worked out at 3.05 µM; in the experiment on P388 leukemia, 1.49 µM; with SN12K1 renal it was 3.27 µM.
